According to patent US20230066011A1, “PYRROLOPYRIMIDINE DERIVATIVE, AND PHARMACEUTICAL COMPOSITION FOR PREVENTING OR TREATING PROTEIN KINASE-RELATED DISEASE COMPRISING SAME AS ACTIVE INGREDIENT” (VORONOI CO., LTD., priority 2019, published 2023):

Assays:
LRRK2 (G2019S) = LRRK2 (G2019S) (Homo sapiens, UniProt Q5S007, G2019S); experiment: LRRK2 G2019S enzyme inhibition, ADP-Glo kinase assay; assay type: biochemical; set-up: purchased SignalChem L10-12GG; details: ATP 25 μM
Summary of the method: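 IC50 derived from luminescent ADP-Glo readout against untreated solvent control, twelve final compound concentrations from 50 μM downward. Reaction: recombinant human LRRK2 G2019S enzyme, 25 μM ATP, substrate, pH 7.4 Tris buffer with MgCl2/BSA/DTT, 25° C. for 2 hours.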

MDA-MB-231 cell line = experiment: Inhibition of proliferation of MDA-MB-231 cancer cells (Cell Titer-Glo); assay type: cell-based; details: Homo sapiens, 72 hours
Description: (§1) To evaluate an inhibitory effect on the proliferation of cancer cells, each of an MDA-MB-231 cell line (Korean Cell Line Bank #30026) and an MDA-MB-468 cell line as triple-negative breast cancer cell lines, and SHP-77 (ATCC #CRL-2195) as a small-cell lung cancer cell line was cultured in DMEM (HyClone #SH30243) or an RPMI medium (HyClone #SH3027.01) to analyze a cell growth rate. More specifically, a cell line was plated on a 96-well flat bottom plate (Corning #3903) at a density of 2,000 cells/100 μL per well, and then treated with 11 concentrations of the Example compound, a solution of which was diluted 3-fold so that a final concentration of the compound was 10.000000, 3.333333, 1.111111, 0.370370, 0.123457, 0.041152, 0.013717, 0.004572, 0.001524, 0.000508, and 0.000169 μM. After 72 hours, each of the culture media was treated with 100 μL of Cell Titer-Glo (Promega G7573), and then cultured at room temperature for 10 minutes. Then, a degree of luminescence was measured using a microplate reader. A GI50 value was calculated from the measured degree of luminescence using Prism (Version 8.2 GraphPad) software.

human GST-CLK1 = molecular target: T1, human GST-CLK1 (Homo sapiens, UniProt P49759); experiment: GST-CLK1 enzyme inhibition, ADP-Glo kinase assay; assay type: biochemical; details: ATP 10 μM, GST-CLK1 129-end
T1 construct: purified human GST-CLK1 (129-end, SignalChem) enzyme; purchased SignalChem
Summary of the method: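 ADP-Glo luminescence read-out, relative to untreated solvent control, gave IC50 (nM) from triplicate data sets. Reactions ran an hour at 25° C with 3 ng GST-CLK1 (residues 129-end), 10 μM ATP and specific substrate in Tris-HCl pH 7.4 buffer with MgCl2, BSA and DTT.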

human GST-DYRK1A = molecular target: T2, human GST-DYRK1A (Homo sapiens, UniProt Q13627); experiment: GST-DYRK1A enzyme inhibition, ADP-Glo kinase assay; assay type: biochemical; details: ATP 10 μM, GST-DYRK1A full length, read-out: DYRK1 IC50
T2 construct: purified human GST-DYRK1A (full length, Thermo Scientifics) enzyme; purchased Thermo Scientifics
Summary of the method: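 Full-length enzyme (10 ng) was incubated with 10 μM ATP and a specific substrate for 1 h at 25 °C in 40 mM Tris-HCl pH 7.4, 20 mM MgCl2, 0.5 mg/mL BSA, 50 μM DTT. Luminescence was read against a solvent control, and IC50 values were derived from 3 data sets.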

SHP-77 = experiment: Inhibition of proliferation of SHP-77 cancer cells (Cell Titer-Glo); assay type: cell-based; details: Homo sapiens, SHP77, 72 hours
Description: as §1

LRRK2 = LRRK2 (Homo sapiens, UniProt Q5S007); experiment: LRRK2 enzyme inhibition, ADP-Glo kinase assay; assay type: biochemical; set-up: purchased Invitrogen PR8604B; details: ATP 10 μM
Summary of the method: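 ADP-Glo luminescent read-out of ADP formed by purified human LRRK2 enzyme (25 ng), 10 μM ATP, 0.2 μg substrate, 25° C for 2 h, Tris-HCl pH 7.4 buffer with MgCl2, BSA, DTT. Inhibition versus untreated solvent control over twelve final concentrations (50 μM downward) gives IC50.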

MDA-MB-468 cell line = experiment: Inhibition of proliferation of MDA-MB-468 cancer cells (Cell Titer-Glo); assay type: cell-based; details: Homo sapiens, MDA-MB-468, 72 hours
Description: as §1

Sequence of LRRK2 (G2019S) (Q5S007 970-2527 G2019S limits assumed): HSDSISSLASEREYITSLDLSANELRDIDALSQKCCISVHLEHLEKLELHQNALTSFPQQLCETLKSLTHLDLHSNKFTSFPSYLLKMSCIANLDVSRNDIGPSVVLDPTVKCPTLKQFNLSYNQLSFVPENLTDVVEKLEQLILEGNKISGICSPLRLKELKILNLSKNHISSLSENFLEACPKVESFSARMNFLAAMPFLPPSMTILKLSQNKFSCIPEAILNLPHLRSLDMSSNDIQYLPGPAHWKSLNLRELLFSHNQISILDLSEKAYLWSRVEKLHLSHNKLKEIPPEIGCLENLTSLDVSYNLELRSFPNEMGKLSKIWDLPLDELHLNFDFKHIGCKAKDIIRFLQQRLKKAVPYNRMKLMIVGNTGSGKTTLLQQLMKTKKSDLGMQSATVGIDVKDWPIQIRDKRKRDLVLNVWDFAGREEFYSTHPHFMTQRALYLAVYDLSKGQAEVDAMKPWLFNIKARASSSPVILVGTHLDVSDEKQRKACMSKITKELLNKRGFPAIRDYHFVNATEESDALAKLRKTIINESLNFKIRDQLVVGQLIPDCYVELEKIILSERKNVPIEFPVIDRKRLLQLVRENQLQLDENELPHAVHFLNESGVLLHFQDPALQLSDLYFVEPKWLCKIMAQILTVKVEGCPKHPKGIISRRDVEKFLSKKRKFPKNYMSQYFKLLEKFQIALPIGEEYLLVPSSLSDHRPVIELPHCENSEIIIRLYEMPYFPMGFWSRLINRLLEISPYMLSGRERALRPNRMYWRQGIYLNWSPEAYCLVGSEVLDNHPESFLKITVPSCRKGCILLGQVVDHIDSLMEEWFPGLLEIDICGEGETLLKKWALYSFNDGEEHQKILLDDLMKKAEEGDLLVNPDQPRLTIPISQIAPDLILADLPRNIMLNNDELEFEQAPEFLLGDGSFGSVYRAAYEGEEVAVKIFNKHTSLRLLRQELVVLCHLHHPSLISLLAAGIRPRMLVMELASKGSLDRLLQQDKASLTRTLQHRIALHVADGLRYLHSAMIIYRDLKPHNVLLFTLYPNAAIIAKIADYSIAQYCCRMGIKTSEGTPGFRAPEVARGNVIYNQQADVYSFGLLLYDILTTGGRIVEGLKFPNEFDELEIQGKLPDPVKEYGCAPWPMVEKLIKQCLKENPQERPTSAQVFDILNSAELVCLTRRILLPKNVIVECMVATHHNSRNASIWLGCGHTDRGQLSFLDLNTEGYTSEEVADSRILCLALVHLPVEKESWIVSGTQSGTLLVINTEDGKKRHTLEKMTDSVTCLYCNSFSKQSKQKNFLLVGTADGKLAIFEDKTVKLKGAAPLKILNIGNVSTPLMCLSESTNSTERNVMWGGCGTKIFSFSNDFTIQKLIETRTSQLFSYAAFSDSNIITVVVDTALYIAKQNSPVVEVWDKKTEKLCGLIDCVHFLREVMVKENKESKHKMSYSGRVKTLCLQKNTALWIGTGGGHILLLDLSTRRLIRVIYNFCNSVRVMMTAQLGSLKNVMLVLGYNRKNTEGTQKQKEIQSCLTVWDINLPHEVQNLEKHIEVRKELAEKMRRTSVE
Sequence of LRRK2 (Q5S007 970-2527 limits assumed): as the sequence (Q5S007 970-2527 G2019S limits assumed) above, with S1050G counted along it
T1 sequence (P49759 129-484 limits assumed): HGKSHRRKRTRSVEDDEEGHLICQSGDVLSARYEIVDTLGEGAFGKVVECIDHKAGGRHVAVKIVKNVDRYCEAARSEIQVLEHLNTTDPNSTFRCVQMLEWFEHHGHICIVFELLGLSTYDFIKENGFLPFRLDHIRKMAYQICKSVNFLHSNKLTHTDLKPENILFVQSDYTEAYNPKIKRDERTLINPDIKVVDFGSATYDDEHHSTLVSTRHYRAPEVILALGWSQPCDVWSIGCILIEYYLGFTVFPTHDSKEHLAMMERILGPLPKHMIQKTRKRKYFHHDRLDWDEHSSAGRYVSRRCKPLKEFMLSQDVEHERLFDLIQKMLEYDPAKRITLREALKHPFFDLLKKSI

Row | IC50 (LRRK2 (G2019S)) [nM] | GI50 (MDA-MB-231 cell line) [nM] | IC50 (human GST-CLK1) [nM] | IC50 (human GST-DYRK1A) [nM] | GI50 (SHP-77) [nM] | IC50 (LRRK2) [nM] | GI50 (MDA-MB-468 cell line) [nM] | SMILES
1 | < 100 | < 50 | 301 to 1000 | 301 to 1000 | < 50 |  |  | COc1cc(S(=O)(=O)N2CCOCC2)ccc1Nc1nc(NCC(C)C)c2c(C#N)c[nH]c2n1 [Example 65, 4-(isobutylamino)-2-((2-methoxy-4-(morpholinosulfonyl)phenyl)amino)-7H-pyrrolo[2,3-d]pyrimidine-5-carbonitrile]
2 |  | < 50 |  |  | < 50 |  |  | COc1cc(S(=O)(=O)N2CCOCC2)ccc1Nc1nc(NC(C)C)c2c(C#N)c[nH]c2n1 [Example 66, 4-(isopropylamino)-2-((2-methoxy-4-(morpholinosulfonyl)phenyl)amino)-7H-pyrrolo[2,3-d]pyrimidine-5-carbonitrile]
3 |  | 101 to 300 | 301 to 1000 | 301 to 1000 | 101 to 300 |  |  | CC[C@H](C)Nc1nc(Nc2ccc(S(=O)(=O)N3CCOCC3)cc2OC)nc2[nH]cc(C#N)c12 [Example 68, (S)-4-(sec-butylamino)-2-((2-methoxy-4-(morpholinosulfonyl)phenyl)amino)-7H-pyrrolo[2,3-d]pyrimidine-5-carbonitrile]
4 |  | 101 to 300 | 301 to 1000 | 301 to 1000 | 101 to 300 |  |  | COc1cc(S(=O)(=O)N2CCOCC2)ccc1Nc1nc(N[C@@H]2CCOC2)c2c(C#N)c[nH]c2n1 [Example 74, (R)-2-((2-methoxy-4-(morpholinosulfonyl)phenyl)amino)-4-((tetrahydrofuran-3-yl)amino)-7H-pyrrolo[2,3-d]pyrimidine-5-carbonitrile]
5 |  | < 50 | 301 to 1000 | 301 to 1000 | < 50 | < 100 |  | COCC(C)(C)Nc1nc(Nc2ccc(S(=O)(=O)N3CCOCC3)cc2OC)nc2[nH]cc(C#N)c12 [Example 78, 4-((1-methoxy-2-methylpropan-2-yl)amino)-2-((2-methoxy-4-(morpholinosulfonyl)phenyl)amino)-7H-pyrrolo[2,3-d]pyrimidine-5-carbonitrile]
6 |  | 51 to 100 | 301 to 1000 | 301 to 1000 | < 50 |  |  | COc1cc(S(=O)(=O)N2CCOCC2)ccc1Nc1nc(NCC2CCC2)c2c(C#N)c[nH]c2n1 [Example 79, 4-((cyclobutylmethyl)amino)-2-((2-methoxy-4-(morpholinosulfonyl)phenyl)amino)-7H-pyrrolo[2,3-d]pyrimidine-5-carbonitrile]
7 | < 100 | 101 to 300 | 301 to 1000 | 301 to 1000 | 51 to 100 |  |  | COc1cc(S(=O)(=O)N2CCOCC2)ccc1Nc1nc(NCC2CCCC2)c2c(C#N)c[nH]c2n1 [Example 80, 4-(cyclo(pentylmethyl)amino)-2-((2-methoxy-4-(morpholinosulfonyl)phenyl)amino)-7H-pyrrolo[2,3-d]pyrimidine-5-carbonitrile]
8 | < 100 | < 50 | 301 to 1000 | 301 to 1000 | < 50 |  |  | COc1cc(S(=O)(=O)N2CCC(N3CCOCC3)CC2)ccc1Nc1nc(NCC(C)C)c2c(C#N)c[nH]c2n1 [Example 84, 4-(isobutylamino)-2-((2-methoxy-4-((4-morpholinopiperidin-1-yl)sulfonyl)phenyl)amino)-7H-pyrrolo[2,3-d]pyrimidine-5-carbonitrile]
9 |  | < 50 | 301 to 1000 | 301 to 1000 | < 50 |  |  | CC[C@@H](C)Nc1nc(Nc2ccc(S(=O)(=O)N3CCC(N4CCOCC4)CC3)cc2OC)nc2[nH]cc(C#N)c12 [Example 86, (R)-4-(sec-butylamino)-2-((2-methoxy-4-((4-morpholinopiperidin-1-yl)sulfonyl)phenyl)amino)-7H-pyrrolo[2,3-d]pyrimidine-5-carbonitrile]
10 |  | < 50 | 301 to 1000 | 301 to 1000 | < 50 | < 100 |  | COc1cc(S(=O)(=O)N2CCC(N3CCOCC3)CC2)ccc1Nc1nc(NCC2CC2)c2c(C#N)c[nH]c2n1 [Example 92, 4-((cyclopropylmethyl)amino)-2-((2-methoxy-4-((4-morpholinopiperidin-1-yl)sulfonyl)phenyl)amino)-7H-pyrrolo[2,3-d]pyrimidine-5-carbonitrile]
11 |  | 301 to 1000 | 301 to 1000 | 101 to 300 | 301 to 1000 |  |  | COc1cc(S(=O)(=O)N2CCOCC2)ccc1Nc1nc(NCC(C)C)c2c(C(F)(F)F)c[nH]c2n1 [Example 192, N^4-isobutyl-N^2-(2-methoxy-4-(morpholinosulfonyl)phenyl)-5-(trifluoromethyl)-7H-pyrrolo[2,3-d]pyrimidine-2,4-diamine]
12 |  | 301 to 1000 | 301 to 1000 | 301 to 1000 | 301 to 1000 |  |  | COc1cc(S(=O)(=O)N2CCOCC2)ccc1Nc1nc(NCC2CCCC2)c2c(C(F)(F)F)c[nH]c2n1 [Example 194, N^4-(cyclopentylmethyl)-N^2-(2-methoxy-4-(morpholinosulfonyl)phenyl)-5-(trifluoromethyl)-7H-pyrrolo[2,3-d]pyrimidine-2,4-diamine]
13 |  | 301 to 1000 | 301 to 1000 | 301 to 1000 | 301 to 1000 |  |  | COc1cc(S(=O)(=O)N2CCC(N3CCOCC3)CC2)ccc1Nc1nc(NCC2CCCC2)c2c(C(F)(F)F)c[nH]c2n1 [Example 195, N^4-(cyclopentylmethyl)-N^2-(2-methoxy-4-((4-morpholinopiperidin-1-yl)sulfonyl)phenyl)-5-(trifluoromethyl)-7H-pyrrolo[2,3-d]pyrimidine-2,4-diamine]
14 |  | 301 to 1000 | 301 to 1000 | 301 to 1000 | 301 to 1000 |  |  | COc1cc(S(=O)(=O)N2CCOCC2)ccc1Nc1nc(NCC2CCC2)c2c(C(F)(F)F)c[nH]c2n1 [Example 200, N^4-(cyclobutylmethyl)-N^2-(2-methoxy-4-(morpholinosulfonyl)phenyl)-5-(trifluoromethyl)-7H-pyrrolo[2,3-d]pyrimidine-2,4-diamine]
15 |  | 301 to 1000 | 101 to 300 | 301 to 1000 | 301 to 1000 |  |  | COc1cc(S(=O)(=O)N2CCOCC2)ccc1Nc1nc(NCC2CC2)c2c(C(F)(F)F)c[nH]c2n1 [Example 203, N^4-(cyclopropylmethyl)-N^2-(2-methoxy-4-(morpholinosulfonyl)phenyl)-5-(trifluoromethyl)-7H-pyrrolo[2,3-d]pyrimidine-2,4-diamine]
16 |  | 301 to 1000 | 301 to 1000 | 301 to 1000 | 301 to 1000 |  |  | CCCCNc1nc(Nc2ccc(S(=O)(=O)N3CCOCC3)cc2OC)nc2[nH]cc(C(F)(F)F)c12 [Example 207, N^4-butyl-N^2-(2-methoxy-4-(morpholinosulfonyl)phenyl)-5-(trifluoromethyl)-7H-pyrrolo[2,3-d]pyrimidine-2,4-diamine]
17 | 101 to 300 | 301 to 1000 | 301 to 1000 | 301 to 1000 |  | < 100 | 301 to 1000 | CCNc1nc(Nc2ccc(S(=O)(=O)N3CCOCC3)c3c2OCCO3)nc2[nH]cc(C(F)(F)F)c12 [Example 432, N^4-ethyl-N^2-(8-(morpholino-sulfonyl)-2,3-dihydro-benzo[b][1,4]dioxin-5-yl)-5-(trifluoromethyl)-7H-pyrrolo[2,3-d]pyrimidine-2,4-diamine]
